Data: patent publication US20230121689A1, “CEPHALOSPORIN ANTIBACTERIAL COMPOUND AND PHARMACEUTICAL APPLICATION THEREOF” (priority 2020, published 2023)
In brackets after ≈: the same amount, converted by molar mass. Where two headings read alike, the source gives them in different places.

Columns and labels:
[1] = test system: Carbapenem-resistant Acinetobacter baumannii (CRAB, Acinetobacter baumannii); test: Test Example 2: antibacterial activity test (MIC); assay type: cell-based
Protocol: (§1) 1. The test compounds were dissolved in sterile normal saline, vortexed for uniformly mixing, and diluted in a 2-fold dilution with the sterile normal saline (11 concentration points in total). The test concentration range was 32-0.031 μg/mL, and two duplicate wells were set for each concentration. Additional wells without drug dosing were set as growth controls. 2. 4 μL of the diluent was added to 196 μL of the bacterial suspension in a 96-well plate (the bacterial count in the bacterial suspension was 2-8×10^5 colony forming units/mL). 3.
(§2) The minimum inhibitory concentration (MIC) assay was performed with reference to the Clinical and Laboratory Standards Institute (CLSI) guidelines.

[2] = test system: Carbapenem-resistant Enterobacteriaceae (CRE, Klebsiella pneumoniae); test: Test Example 2: antibacterial activity test (MIC); assay type: cell-based
Protocol: as §1, §2

[3] = test system: Carbapenem-resistant Pseudomonas aeruginosa (CRPA, Pseudomonas aeruginosa); test: Test Example 2: antibacterial activity test (MIC); assay type: cell-based
Protocol: as §1, §2

[4] = test system: Control Strain Pseudomonas aeruginosa ATCC 27853; test: Test Example 2: antibacterial activity test (MIC); assay type: cell-based
Protocol: as §1, §2

[5] = test system: Control strain Escherichia coli ATCC 25922; test: Test Example 2: antibacterial activity test (MIC); assay type: cell-based
Protocol: as §1, §2

[6] = Test Example 3: pharmacokinetic study in cynomolgus monkeys; assay type: in vivo; settings: cynomolgus monkey, plasma, 10 mg/kg single intravenous infusion, individual animals
Protocol: An appropriate amount of a test compound was weighed precisely and added to a container, and 0.9% sodium chloride injection and 0.2 M NaOH solution were added thereto in an ice bath until the test compound was completely dissolved, so that a sample solution at a concentration of 2 mg/mL was obtained followed by storage at 2-8° C. for later use.
Species and strain: cynomolgus monkey Animal grade: general grade Animal source: Guangxi Xiongsen Primate Experimental Animal Breeding Development Co., Ltd. Number of the using of laboratory animal: SYXK (Su) 2019-0012
6 cynomolgus monkeys (half male and half female) were selected and randomly divided into 3 groups with 1 animal/sex in each group. The cynomolgus monkeys were administered with the test sample at a dose of 10 mg/kg by the single intravenous infusion. Blood samples were collected from each group of animals at the following time points: before administration, and 5 min, 15 min, 0.5 h, 1 h, 2 h, 4 h, 6 h, and 8 h after administration. In the test, the concentration of each test compound in the plasma of the cynomolgus monkey was detected by the LC-MS/MS method, and the lower limit of quantification of the analysis methods for the plasma samples were all 1 μg/mL. The plasma concentration data were analyzed by the non-compartmental analysis (NCA) of the analysis software for pharmacokinetic data, WinNonlin, pharmacokinetic parameters were calculated, and pharmacokinetic characteristics of the test compounds in cynomolgus monkeys after administration were investigated, with the results shown in the following table

[7] = test system: Carbapenem-resistant Acinetobacter baumannii (CRAB); test: Test Example 1: antibacterial activity test (MIC); assay type: cell-based
Protocol: (§3) The test compounds were diluted in a gradient and used for an MIC assay on the test strains. The test compounds at an initial assay concentration of 32 μg/mL were diluted in a 2-fold gradient (11 concentration points in total), and two duplicate wells were set for each concentration. Additional wells without drug dosing were set as growth controls. The minimum inhibitory concentration (MIC) assay was performed with reference to the Clinical and Laboratory Standards Institute (CLSI) guidelines.
(§4) After the frozen strains were subcultured, a single colony was picked and re-suspended in normal saline or sterile water in a tube. The bacterial suspension was vortexed and adjusted to 0.5 McF using a spectrophotometer at the wavelength of 530 nm. The bacterial solution was taken by a pipette, added to a culture medium, diluted and mixed well, and seeded to a bacterial assay plate.
(§5) The 96-well plate was affixed with a disposable sealing film, shaken and mixed well, and visually observed using a plate reader. The minimum concentration of the compounds capable of inhibiting the growth of bacteria was defined as MIC as compared to the growth controls.

[8] = test system: Carbapenem-resistant Enterobacteriaceae (CRE); test: Test Example 1: antibacterial activity test (MIC); assay type: cell-based
Protocol: as §3, §4, §5

[9] = test system: Carbapenem-resistant Pseudomonas aeruginosa (CRPA); test: Test Example 1: antibacterial activity test (MIC); assay type: cell-based
Protocol: as §3, §4, §5

[10] = both sexes, cynomolgus, iv, 10 mg/kg

CC(C)(O/N=C(\C(=O)N[C@@H]1C(=O)N2C(C(=O)O)=C(C[N+]3(CCN(CCCNC(=O)c4ccc(O)c(O)c4Cl)C(=O)c4ccc(O)c(O)c4Cl)CCCC3)CS[C@H]12)c1csc(N)n1)C(=O)O [Compound 10]
MIC ([1]; ID-CAMHB, FDA-CDC AR-BANK #0036 (strB, OXA-65, OXA-24, strA, sul2), read-out: ID-CAMHB, MIC): 0.125 mg/L | MIC ([1]; ID-CAMHB, FDA-CDC AR-BANK #0052 (OXA-58, OXA-100, sul2), read-out: ID-CAMHB, MIC): 0.0625 mg/L | MIC ([1]; ID-CAMHB, FDA-CDC AR-BANK #0063 (OXA-23, OXA-65, OXA-24, sul2), read-out: ID-CAMHB, MIC): > 32 mg/L | MIC ([1]; ID-CAMHB, FDA-CDC AR-BANK #0070 (OXA-58, OXA-100, sul2), read-out: ID-CAMHB, MIC): 0.125 mg/L | MIC ([1]; ID-CAMHB, FDA-CDC AR-BANK #0101 (strB, OXA-65, OXA-24, strA, sul2), read-out: ID-CAMHB, MIC): 0.5 mg/L | MIC ([2]; ID-CAMHB, FDA-CDC AR-BANK #0361 (TEM-1; SHV-12; KPC-2), read-out: ID-CAMHB, MIC): 0.25 mg/L | MIC ([2]; ID-CAMHB, FDA-CDC AR-BANK #0363 (TEM-1; SHV-12; KPC-2), read-out: ID-CAMHB, MIC): 0.125 mg/L | MIC ([2]; ID-CAMHB, FDA-CDC AR-BANK #0438 (aph(3′)-Ia, dfrA12, KPC-3, OmpK35, oqxA, oqxB, SHV-11), read-out: ID-CAMHB, MIC): 0.5 mg/L | MIC ([2]; ID-CAMHB, FDA-CDC AR-BANK #0453 (KPC-3, OmpK35, oqxA, oqxB, SHV-11, TEM-1B), read-out: ID-CAMHB, MIC): 2 mg/L | MIC ([3]; ID-CAMHB, FDA-CDC AR-BANK #0439 (aac(6′)-Il, aadA1b, BCR1, IMP-18, OXA-50), read-out: ID-CAMHB, MIC): 0.25 mg/L | MIC ([3]; ID-CAMHB, FDA-CDC AR-BANK #0441 (KPC-2), read-out: ID-CAMHB, MIC): 1 mg/L | MIC ([3]; ID-CAMHB, FDA-CDC AR-BANK #0444 (aac(6′)-Il, dfrB5, OXA-4, tet(G), VIM-2), read-out: ID-CAMHB, MIC): 16 mg/L | MIC ([3]; ID-CAMHB, FDA-CDC AR-BANK #0457 (aadA6, VIM-2), read-out: ID-CAMHB, MIC): 0.0625 mg/L | MIC ([4]; ATCC27853, ID-CAMHB, ATCC 27853, read-out: ID-CAMHB, MIC): 0.0625 mg/L | MIC ([5]; ATCC25922, ID-CAMHB, ATCC 25922, read-out: ID-CAMHB, MIC): 0.0625 mg/L | AUC(0-inf) [6, 10]: 32.9 µg·h/mL | AUC(0-t) [6, 10]: 29.3 µg·h/mL | clearance [6, 10]: 0.304 L/h/kg | half-life [6, 10]: 37.2 min | Cmax ([6]; both sexes, cynomolgus, iv, 10 mg/kg, read-out: Cmax): 35.5 µg/mL | MRT ([6]; both sexes, cynomolgus, iv, 10 mg/kg, read-out: MRT): 38.4 min | Vd ([6]; both sexes, cynomolgus, iv, 10 mg/kg, read-out: Vd): 0.27 L/kg | Tmax ([6]; both sexes): 4.8 min | AUC last ([6]; 10 mg/kg): 23.44 µg·h/mL | AUCinf ([6]; 10 mg/kg): 25.64 µg·h/mL | CL ([6]; 10 mg/kg): 0.39001 L/h/kg | Cmax ([6]; 10 mg/kg): 30.64 µg/mL | MRT ([6]; 10 mg/kg): 37.2 min | Vd ([6]; 10 mg/kg): 0.31334 L/kg | t1/2 ([6]; 10 mg/kg): 33.6 min

C[C@@H](O)[C@H]1C(=O)N2C(C(=O)O)=C(S[C@@H]3CN[C@H](C(=O)N(C)C)C3)[C@H](C)[C@H]12 [Meropenem, reference compound]
MIC ([7]; CRAB strain No. 100085): 32 mg/L (≈ 83.4 µM) | MIC ([7]; CRAB strain No. 100333): > 32 mg/L | MIC ([7]; CRAB strain No. 110440): 32 mg/L (≈ 83.4 µM) | MIC ([7]; CRAB strain No. 110477): > 32 mg/L | MIC ([7]; CRAB strain No. 110517): 32 mg/L (≈ 83.4 µM) | MIC ([8]; CRE strain No. 100109): > 32 mg/L | MIC ([8]; CRE strain No. 100186): > 32 mg/L | MIC ([8]; CRE strain No. 110502): 32 mg/L (≈ 83.4 µM) | MIC ([8]; CRE strain No. 110525): 32 mg/L (≈ 83.4 µM) | MIC ([8]; CRE strain No. 311277): 32 mg/L (≈ 83.4 µM) | MIC ([9]; CRPA strain No. 100110): 32 mg/L (≈ 83.4 µM) | MIC ([9]; CRPA strain No. 110163): 24 mg/L (≈ 62.6 µM) | MIC ([9]; CRPA strain No. 110224): 16 mg/L (≈ 41.7 µM) | MIC ([9]; CRPA strain No. 110358): 4 mg/L (≈ 10.4 µM) | MIC ([9]; CRPA strain No. 110390): 12 mg/L (≈ 31.3 µM) | MIC ([1]; CAMHB, FDA-CDC AR-BANK #0036, read-out: CAMHB MIC): > 32 mg/L | MIC ([1]; CAMHB, FDA-CDC AR-BANK #0052, read-out: CAMHB MIC): 16 mg/L (≈ 41.7 µM) | MIC ([1]; CAMHB, FDA-CDC AR-BANK #0063, read-out: CAMHB MIC): > 32 mg/L | MIC ([1]; CAMHB, FDA-CDC AR-BANK #0070, read-out: CAMHB MIC): 8 mg/L (≈ 20.9 µM) | MIC ([1]; CAMHB, FDA-CDC AR-BANK #0101, read-out: CAMHB MIC): > 32 mg/L | MIC ([2]; read-out: CAMHB MIC, CAMHB, FDA-CDC AR-BANK #0361): 16 mg/L (≈ 41.7 µM) | MIC ([2]; read-out: CAMHB MIC, CAMHB, FDA-CDC AR-BANK #0362): > 32 mg/L | MIC ([2]; read-out: CAMHB MIC, CAMHB, FDA-CDC AR-BANK #0363): 32 mg/L (≈ 83.4 µM) | MIC ([2]; read-out: CAMHB MIC, CAMHB, FDA-CDC AR-BANK #0438): > 32 mg/L | MIC ([2]; read-out: CAMHB MIC, CAMHB, FDA-CDC AR-BANK #0453): > 32 mg/L | MIC ([3]; CAMHB, FDA-CDC AR-BANK #0439, read-out: CAMHB MIC): > 32 mg/L | MIC ([3]; CAMHB, FDA-CDC AR-BANK #0441, read-out: CAMHB MIC): > 32 mg/L | MIC ([3]; CAMHB, FDA-CDC AR-BANK #0444, read-out: CAMHB MIC): > 32 mg/L | MIC ([3]; CAMHB, FDA-CDC AR-BANK #0457, read-out: CAMHB MIC): > 32 mg/L | MIC ([4]; ATCC27853, CAMHB, ATCC 27853, read-out: CAMHB MIC): 0.5 mg/L (≈ 1.3 µM) | MIC ([5]; ATCC25922, CAMHB, ATCC 25922, read-out: CAMHB MIC): ≤ 0.0312 mg/L
